# According to patent US20050209446A1, “Novel 15-membered cyclic azalide, novel 16-membered cyclic diazalide derivative, and process for producing these” (Meiji Seika Kaisha Ltd., priority 2002, published 2005):
# Columns and labels:
# [1] = type: in vitro ADME, mouse
# Method: Antibacterial activities of the compound of Example 19 after treatment with mouse liver homogenate were examined as follows. Antibacterial activities of MOM were examined in the same manner for comparison. The liver was collected from a mouse, and added with a phosphate buffer to prepare 5% homogenate. A 50 μl of the test drug solution, dissolved in methanol so as to be 150 μg/ml, was added to 1.45 ml of the mouse liver homogenate, and the mixture was allowed to react at 37° C. Each portion of the reaction mixture was collected at the beginning of the reaction, and after 10, 20 and 40 minutes, and added with a given volume of an acetonitrile solution to prepare each bioassay sample for the measurement of a concentration of the test drug. […] After the incubation, a diameter of growth inhibitory circle of Micrococcus luteus ATCC9341 observed around the paper disc was measured with a digital slide calipers. […] On the basis of a calibration curve which was drawn from the concentrations and the diameters of growth inhibitory circles of the standard solutions, residual activities of the samples at the above sampling times were calculated, and compared with antibacterial activities at the beginning of the reaction.
# [2] = tested on: Staphylococcus aureus Smith; assay: Antibacterial activity test in vitro (agar dilution MIC); type: cell-based; settings: blood agar medium, 37° C., about 20 hours
# Method: (§1) Antibacterial activities in vitro of the compounds of Examples 19 and 25 were measured as follows by referring to the standard method of Japanese Society of Chemotherapy (Chemotherapy, Vol. 29, p. 76-79, 1981). Antibacterial activities of miokamycin (MOM) was measured in the same manner for comparison.
# (§2) For each of the solutions of the test drugs, which were dissolved in methanol so as to be 6,400 μg/ml, serial two-fold diluents with methanol were prepared. Each 200 μl of the test drug solutions prepared was placed in a laboratory dish, and the agar medium for sensitivity measurement, which was added with 5% equine sterile defibrinated blood, 15 μg/ml, β-Nicotinamide-adenine dinucleotide and 2.5 μg/ml hemin, was dispensed in 10 ml aliquots into the dish and then mixed with the solution for dilution to prepare the agar plate containing the test drug. A given amount of the liquid medium for the sensitivity measurement, which was prepared so as to contain a given amount of test bacterium was inoculated on the agar plate containing the test drug by a microplanter (Sakuma Seisakusyo, Co. Ltd.), and after the inoculation, the plate was incubated at 37° C. for about 20 hours. After the incubation, the existence of growth of the test bacterium was visually observed, and a minimum concentration at which no growth was observed was defined as a minimum inhibitory concentration of a test drug (MIC) against each of test bacteria.
# [3] = tested on: Haemophilus influenzae 9334; assay: as above; type: cell-based; settings: blood agar medium, 37° C., about 20 hours
# Method: as §1, §2
# [4] = tested on: Streptococcus pneumoniae IP692; assay: as above; type: cell-based; settings: blood agar medium, 37° C., about 20 hours
# Method: as §1, §2
# [5] = tested on: Moraxella catarrhalis W-0506; assay: as above; type: cell-based; settings: 37° C., about 20 hours; for Minimum inhibitory concentration (MIC): blood agar medium
# Method: as §1, §2
# [6] = tested on: Streptococcus pneumoniae DP1 TypeI; assay: as above; type: cell-based; settings: blood agar medium, 37° C., about 20 hours
# Method: as §1, §2
# [7] = tested on: Micrococcus luteus ATCC9341; assay: as above; type: cell-based; settings: blood agar medium, 37° C., about 20 hours
# Method: as §1, §2
# test bacteria = assay: Antibacterial activity test in vitro, overall statement; type: cell-based; settings: summary of Table 1
# Method: as §1
# as §2, with “After the incubation, the existence of growth of the test bacterium was visually observed, and a minimum concentration at which no growth was observed was defined as a minimum inhibitory concentration of a test drug (MIC) against each of test bacteria.” left out
# [8] = read-out: Minimum inhibitory concentration (MIC)
SMILES,"residual antibacterial activities after treatment with mouse liver homogenate, compared with the start of the reaction [1]",Minimum inhibitory concentration (MIC) [2],Minimum inhibitory concentration (MIC) [3],Minimum inhibitory concentration (MIC) [4],Minimum inhibitory concentration (MIC) [5],Minimum inhibitory concentration (MIC) [6],Minimum inhibitory concentration (MIC) [7],antibacterial activities compared with MOM (test bacteria),"MIC [2, 8]","MIC [3, 8]","MIC [4, 8]","MIC ([5]; W0506, blood agar medium, read-out: Minimum inhibitory concentration (MIC))","MIC ([6]; DP1TYPEI, read-out: Minimum inhibitory concentration (MIC))","MIC [7, 8]"
CCC(=O)O[C@@H]1CC(=O)O[C@H](C)CCN(CCCCc2ccccc2)C[C@H](O)[C@H](C)C[C@H](CC=O)[C@H](O[C@@H]2O[C@H](C)[C@@H](O[C@H]3C[C@@](C)(OC(C)=O)[C@@H](OC(=O)CC)[C@H](C)O3)[C@H](N(C)C)[C@H]2O)[C@H]1OC [Example 19],no decrease in antibacterial activities,0.5 mg/L,2 mg/L,0.13 mg/L,0.25 mg/L,0.06 mg/L,0.03 mg/L,higher antibacterial activities than MOM,–,–,–,–,–,–
"CCC(=O)O[C@@H]1CC(=O)O[C@H](C)CCN(CCCc2ccnc3ccccc23)C[C@H](O)[C@H](C)C[C@H](CC=O)[C@H](O[C@@H]2O[C@H](C)[C@@H](O[C@H]3C[C@@](C)(OC(C)=O)[C@@H](OC(=O)CC)[C@H](C)O3)[C@H](N(C)C)[C@H]2O)[C@H]1OC [Example 25, (−)-(3R,4S,5S,6R,8R,9R,14R)-5-[4-O-(3-O-acetyl-2,6-dideoxy-3-C-methyl-4-O-propionyl-α-L-ribo-hexopyranosyl)-3,6-dideoxy-3-dimethylamino-8-D-glucopyranosyl]-6-formylmethyl-9-hydroxy-4-methoxy-8-methyl-3-propionyloxy-11-(3-(quinolin-4-yl)propyl)-11-aza-pentadecan-14-olide]",–,0.5 mg/L,1 mg/L,0.06 mg/L,0.25 mg/L,0.06 mg/L,0.03 mg/L,higher antibacterial activities than MOM,–,–,–,–,–,–
"CCC(=O)O[C@@H]1CC(=O)O[C@H](C)C/C=C/C=C/[C@H](OC(C)=O)[C@H](C)C[C@H](CC=O)[C@H](O[C@@H]2O[C@H](C)[C@@H](O[C@H]3C[C@@](C)(OC(C)=O)[C@@H](OC(=O)CC)[C@H](C)O3)[C@H](N(C)C)[C@H]2O)[C@H]1OC [MOM, miokamycin, reference compound]",apparent decreases in antibacterial activities,–,–,–,–,–,–,–,1 mg/L,4 mg/L,0.25 mg/L,1 mg/L,0.25 mg/L,0.13 mg/L
